Data on one molecule can be found in patent US7531194B2, “Plant extracts for the treatment of rheumatoid arthritis” (Development Center for Biotechnology, priority 2006, dated 2009).

Holding throughout (assay type): in vivo, Lewis rats
For one test, the system named is CIA rats. Briefly: Maximum arthritic index (MAI) of CIA rats fed PA crude extracts (Embodiment 2). To be noted: gavage until Day 45, PA-H 375, PA-L 75, indomethacin 2.5 mg/kg/day, FIG. 4. The protocol:
The animal test scheme is shown as FIG. 2. Bovine collagen Type II (Bovine C II) was dissolved in 0.1 M acetic acid solution, stirred to dissolve thoroughly, and formulated into solutions with concentrations of 1.5 and 3 mg/ml, which were stored in 4° C. for later use. For the first immune injection, 100 μl of C II solution was emulsified with an equal amount of CFA, and injected subcutaneously (200 μl/rat) in the root portions of tails of the rats after the emulsification was complete. […] After about 15 days, the second immunization was done. 100 μl of C II solution was emulsified with an equal amount of IFA, and injected subcutaneously (200 μl/rat) in the root portions of tails of the rats after the emulsification was complete. Approximately from Day 20, the symptoms of arthritis were observed (CIA rats), and PA and indomethacin were fed until Day 45. [table] 2. Evaluation of RA examination: evaluated in maximum arthritic index (MAI) After immunization, the rats were observed three times a week. The changes of redness and swelling or the like in limbs were recorded, and photographs were taken and filed for comparison. […] Maximum arthritic index, average MAI for each group was calculated as follows: Average MAI=Total of MAI recorded in limbs of each rat (0: no CIA occurs, 16: highest score)/4/total rat number of each group

Test [1] in a line: Body weight of CIA rats fed PA crude extracts (Embodiment 2). The following applies: gavage from about Day 20 until Day 45, PA-H 375, PA-L 75, indomethacin 2.5 mg/kg/day, FIG. 3. The protocol:
The test animals, Lewis rats, 8 weeks old and about 155-165 g in weight, were all purchased from National Laboratory Animal Center. They were raised in an animal house with a 12-hour light/12-hour dark cycle, a room temperature of 23±1° C., moderate moisture, and good air conditioning, wherein water and feed were provided ad libitum. In addition, during the operation, all the test animals conformed to the criteria of the International Committee on Laboratory Animals' standard regulation. The animal test scheme is shown as FIG. 2. Bovine collagen Type II (Bovine C II) was dissolved in 0.1 M acetic acid solution, stirred to dissolve thoroughly, and formulated into solutions with concentrations of 1.5 and 3 mg/ml, which were stored in 4° C. for later use. For the first immune injection, 100 μl of C II solution was emulsified with an equal amount of CFA, and injected subcutaneously (200 μl/rat) in the root portions of tails of the rats after the emulsification was complete. […] After about 15 days, the second immunization was done. 100 μl of C II solution was emulsified with an equal amount of IFA, and injected subcutaneously (200 μl/rat) in the root portions of tails of the rats after the emulsification was complete. Approximately from Day 20, the symptoms of arthritis were observed (CIA rats), and PA and indomethacin were fed until Day 45. [table] 1. […]

In the next test the test system is IL-6. Nature of the test: Abdominal cavity cell (PEC) culture, cytokine IL-6, CIA rats fed PA crude extracts (Embodiment 2). The following applies: LPS 10 μg/ml, 24 hours, FIG. 9. How it is done:
The animal test scheme is shown as FIG. 2. Bovine collagen Type II (Bovine C II) was dissolved in 0.1 M acetic acid solution, stirred to dissolve thoroughly, and formulated into solutions with concentrations of 1.5 and 3 mg/ml, which were stored in 4° C. for later use. For the first immune injection, 100 μl of C II solution was emulsified with an equal amount of CFA, and injected subcutaneously (200 μl/rat) in the root portions of tails of the rats after the emulsification was complete. […] After about 15 days, the second immunization was done. 100 μl of C II solution was emulsified with an equal amount of IFA, and injected subcutaneously (200 μl/rat) in the root portions of tails of the rats after the emulsification was complete. Approximately from Day 20, the symptoms of arthritis were observed (CIA rats), and PA and indomethacin were fed until Day 45. [table] 1. After carbon dioxide euthanasia, the outer furs of the rat abdominal cavity were cut out by scissors, to expose the whole abdominal cavity. 2. HBSS buffer was injected into the abdominal cavity batch-wise by a 10 ml syringe to make a total volume of about 20 ml/rat. 3. The abdominal cavity of the rat was opened after the abdomen was gently kneaded. An incision of about 2 cm was made in the abdominal cavity by using scissors. […] The concentrations of cytokine TNF-α, IL-6, and IL-1β were analyzed by using ELISA kit.

The test system of another test is C-reactive protein (CRP). Nature of the test: Serum C-reactive protein (CRP) analysis of CIA rats fed PA crude extracts (Embodiment 2). The protocol: The animal test scheme is shown as FIG. 2. Bovine collagen Type II (Bovine C II) was dissolved in 0.1 M acetic acid solution, stirred to dissolve thoroughly, and formulated into solutions with concentrations of 1.5 and 3 mg/ml, which were stored in 4° C. for later use. For the first immune injection, 100 μl of C II solution was emulsified with an equal amount of CFA, and injected subcutaneously (200 μl/rat) in the root portions of tails of the rats after the emulsification was complete. […] After about 15 days, the second immunization was done. 100 μl of C II solution was emulsified with an equal amount of IFA, and injected subcutaneously (200 μl/rat) in the root portions of tails of the rats after the emulsification was complete. Approximately from Day 20, the symptoms of arthritis were observed (CIA rats), and PA and indomethacin were fed until Day 45. [table] 1. CRP ELISA kit was a pre-coated microplate, into which 0.1 ml of appropriately diluted serum sample could be added directly. After being reacted for 1 hour at room temperature, it was washed by the washing buffer four times. 2. Rabbit anti-rat C-reactive protein (CRP) was combined with HRP Ab, diluted with the washing buffer 100 times, and then 0.1 ml was added into each well. […] Finally, O.D value was read out at the wavelength of 450 nm. […]

As to `COc1ccc2c(c1)c(CC(=O)O)c(C)n2C(=O)c1ccc(Cl)cc1` [indomethacin, Indomethacin], in the test with CIA rats, the “effect on the arthritic indices (MAI) of CIA rats” value is given as “most preferred”. The “effect on the body weight of CIA rats (weight reduction)” value in test [1] was “weight reduction is efficiently avoided”. In addition, the “inhibition of PEC secreting IL-6” value in the test with IL-6 is listed as “no effect of inhibiting PEC from secreting inflammatory cytokine”. Besides, the “effect on serum CRP concentration” value was “efficiently inhibited” in the test with C-reactive protein (CRP) (Day 35, PA-H 375, PA-L 75, indomethacin 2.5 mg/kg/day, FIG. 7) and “same effects still exist” with C-reactive protein (CRP) (Day 45, FIG. 7).
